The target in this test is T1, BTK protein (Homo sapiens, UniProt Q06187).
T1 construct: endogenous in cells; host or cells: TMD-8 cells
Description: Measurement of BTK protein degradation ability in TMD-8 cells (Western blotting). The conditions noted are these: harvested after 24 hours; for BTK degradation (%) 1 nM: compound 1 nM; for BTK degradation (%) 10 nM: compound 10 nM; for BTK degradation (%) 100 nM: compound 100 nM. The test is classed as cell-based. As to the method:
TMD-8, RAMOS, or 293T BTK MUT (C481S) cells were treated with the synthesized compounds, and then the amount of BTK protein present in the cells was measured using Western blotting detection. The protocol for the experiment conducted using TMD-8 cells was as follows:
[Culture] TMD-8 cells were resuspended in RPMI1640 MEDIUM (Hyclone, SH30027.01), 10% FBS (Hyclone, SV30207.02), and 1% Penicillin-streptomycin (Welgene, LS 202-02) media, and 1 mL of this suspension was seeded in a 12-well plate at a cell concentration of 1×10^6/mL.
[Compound treatment] The 12-well plate was treated as follows: The 10 mM stock was serially diluted 1/10 with DMSO (3 μL+27 μL DMSO), and cells were treated with compounds at final concentrations of 0.1, 1, 10 μM or 0.0001, 0.001, 0.01, 0.1 μM, and harvested after 24 hours. In the negative control group, DMSO diluted 1/10 was added to the media. (3 μL DMSO+27 μL media)
[Harvest] Each well was pipetted with a 1 mL pipette, collected in a 1.5 mL microtube, and centrifuged (500 g, 5 min, 4° C.). After removing the supernatant, it was washed with PBS and centrifuged again (500 g, 5 min, 4° C.). The supernatant was removed and the pellet was collected.
[Cell lysis and Sample preparation] lysis buffer was prepared as follows: RIPA buffer (Biosesang, RC2038-050-00), 0.5 mM PMSF (SIGMA, P7626) and 1× Protease/Phosphatase Inhibitor (Cell signaling, 5872S) were added at 60-70 μL per well and left on ice for 30 minutes. (Vortexing at 0 and 30 minutes, respectively), followed by sonication (10 seconds pulse, 30 seconds rest, 5 cycles, 70% amplification) and centrifuge (15000 g, 15 min, 4° C.). Only the supernatant was collected and transferred to a new microtube. The samples were diluted by ½ with RIPA buffer in a 96-well plate. 200 μL of the mixture A:B=50:1 of the BCA Protein Assay Kit (iNtRON, 21071) was added each, stayed at 37° C. for 30 minutes, and cooled for 10 minutes. Afterwards, absorbance was measured at 562 nm using BioTek's SYNERGY H1 microplate reader. After making a sample by quantifying the protein using the measured value, it was boiled at 70° C. for 10 minutes. The sample buffer used at this time was a mixture of NuPAGE or Bolt 4× sample buffer (Invitrogen) and each 10× sample reducing agent according to the gel to be used. RIPA buffer was used for protein dilution.
[Western blotting detection method] The same amount of sample was loaded on NuPAGE or Bolt Bis-tris 4-12% gradient gel and run (200 V, 35 minutes). It was transferred to a […] NC membrane using Trans-blot Turbo (BIO-RAD) (1.3 A constant, 25 V limit, 15 minutes). For blocking, skim milk or Intercept Blocking Buffer (LI-COR, 927-60001): 0.1% TBST=1:1 was used at room temperature for 1 hour. Anti BTK Rabbit (1:1,000 in 5% skim milk/0.2% TBST, size: 77 kDa, Cell signaling Technology) was reacted at 4° C. for 16 hours or at room temperature for 2 hours. Anti GAPDH Rabbit (1:10,000 in 5% BSA/0.2% TBST, size: 36 kDa, GENETEX) and Anti β-actin mouse (1:10,000 in 5% BSA/0.2% TBST, RT, size: 43 kDa, GENETEX) were reacted at room temperature for 1 hour or 3 hours. The samples were washed 3 times with 0.5% TBST for 5 minutes each. Secondary antibodies, Anti-Rabbit IgG (1:5,000 in 5% Skim milk/TBST, CST), IRDye® 800CW Goat anti-Rabbit IgG Secondary Antibody (1:10,000 in 5% skim/TBST, RT 45 min), IRDye® 680RD Goat anti-Mouse IgG Secondary Antibody (1:10,000 in 5% skim/TBST, RT 45 min) were added depending on each sample and reacted for 45 minutes on a rocker at room temperature. The samples were washed 5 times with 0.5% TBST for 5 minutes each and detected with LI-COR's Odyssey. At this time, BTK was detected using SuperSignal West Pico PLUS Chemiluminescent Substrate or SuperSignal West femto Maximum Sensitivity Substrate, and house-keeping genes were detected as is.

T1 sequence (Q06187 whole entry): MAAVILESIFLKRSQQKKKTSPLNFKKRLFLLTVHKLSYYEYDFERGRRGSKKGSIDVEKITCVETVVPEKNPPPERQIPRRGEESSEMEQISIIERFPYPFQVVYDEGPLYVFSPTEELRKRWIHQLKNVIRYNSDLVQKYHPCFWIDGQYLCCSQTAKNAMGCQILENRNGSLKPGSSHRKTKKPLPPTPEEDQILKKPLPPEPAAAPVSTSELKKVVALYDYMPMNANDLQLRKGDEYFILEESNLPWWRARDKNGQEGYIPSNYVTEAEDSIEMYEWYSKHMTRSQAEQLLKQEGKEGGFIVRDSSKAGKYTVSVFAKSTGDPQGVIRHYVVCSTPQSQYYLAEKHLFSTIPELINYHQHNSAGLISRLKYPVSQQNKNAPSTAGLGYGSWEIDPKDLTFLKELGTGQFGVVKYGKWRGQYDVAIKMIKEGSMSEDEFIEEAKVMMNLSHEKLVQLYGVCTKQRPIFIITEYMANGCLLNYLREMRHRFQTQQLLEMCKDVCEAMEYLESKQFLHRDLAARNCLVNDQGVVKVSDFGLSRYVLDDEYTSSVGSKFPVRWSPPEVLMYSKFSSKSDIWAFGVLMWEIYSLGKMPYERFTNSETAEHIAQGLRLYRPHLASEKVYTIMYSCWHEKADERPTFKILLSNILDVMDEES

For `Cc1cc(-c2ccnc(Nc3ccc(N4CCN(CC5CCN(c6cc7c(cc6F)C(=O)N(C6CCC(=O)NC6=O)C7=O)CC5)CC4)cc3)n2)ccc1CNC(=O)N1CC(OC(C)C)C1` (stereo not drawn) [Example 12, N-(4-(2-((4-(4-((1-(2-(2,6-dioxopiperidin-3-yl)-6-fluoro-1,3-dioxoisoindolin-5-yl)piperidin-4-yl)methyl)piperazin-1-yl)phenyl)amino)pyrimidin-4-yl)-2-methylbenzyl)-3-isopropoxyazetidine-1-carboxamide], the “BTK degradation (%) 1 nM” value came out at 23.5%, the “BTK degradation (%) 10 nM” value turned out to be 84.5% and the “BTK degradation (%) 100 nM” value is recorded as 98.5%.
In the same order, the values of `Cc1cc(-c2ccnc(Nc3ccc(N4CCN(CC5CN(c6cc7c(cc6F)C(=O)N(C6CCC(=O)NC6=O)C7=O)C5)CC4)cc3)n2)ccc1CNC(=O)N1CC(OC(C)C)C1` (stereo not drawn) [Example 13, N-(4-(2-((4-(4-((1-(2-(2,6-dioxopiperidin-3-yl)-6-fluoro-1,3-dioxoisoindolin-5-yl)azetidin-3-yl)methyl)piperazin-1-yl)phenyl)amino)pyrimidin-4-yl)-2-methylbenzyl)-3-isopropoxyazetidine-1-carboxamide] are 38%, 91% and 99%.
Taken in the same sequence, the figures for `Cc1cc(-c2ccnc(Nc3ccc(N4CCN(CC5(C)CN(c6ccc7c(c6)C(=O)N(C6CCC(=O)NC6=O)C7=O)C5)CC4)cc3)n2)ccc1CNC(=O)N1CC(OC(C)C)C1` (stereo not drawn) [Example 14, N-(4-(2-((4-(4-((1-(2-(2,6-dioxopiperidin-3-yl)-1,3-dioxoisoindolin-5-yl)-3-methylazetidin-3-yl)methyl)piperazin-1-yl)phenyl)amino)pyrimidin-4-yl)-2-methylbenzyl)-3-isopropoxyazetidine-1-carboxamide] were 20%, 85.5% and 98%.
As for `Cc1cc(-c2ccnc(Nc3ccc(C4CCN(CC5CCN(c6ccc7c(c6)C(=O)N(C6CCC(=O)NC6=O)C7=O)CC5)CC4)cc3)n2)ccc1CNC(=O)N1CC(OC(C)C)C1` (stereo not drawn) [Example 15, N-(4-(2-((4-(1-((1-(2-(2,6-dioxopiperidin-3-yl)-1,3-dioxoisoindolin-5-yl)piperidin-4-yl)methyl)piperidin-4-yl)phenyl)amino)pyrimidin-4-yl)-2-methylbenzyl)-3-isopropoxyazetidine-1-carboxamide], the “BTK degradation (%) 1 nM” value amounted to 56.5%, the “BTK degradation (%) 10 nM” value is reported as 95.5% and the “BTK degradation (%) 100 nM” value was determined as 99%.
Take `Cc1cc(-c2ccnc(Nc3ccc(C4CCN(CC5CN(c6ccc7c(c6)C(=O)N(C6CCC(=O)NC6=O)C7=O)C5)CC4)cc3)n2)ccc1CNC(=O)N1CC(OC(C)C)C1` (stereo not drawn) [Example 16, N-(4-(2-((4-(1-((1-(2-(2,6-dioxopiperidin-3-yl)-1,3-dioxoisoindolin-5-yl)azetidin-3-yl)methyl)piperidin-4-yl)phenyl)amino)pyrimidin-4-yl)-2-methylbenzyl)-3-isopropoxyazetidine-1-carboxamide]: the “BTK degradation (%) 1 nM” value is 59%, the “BTK degradation (%) 10 nM” value is recorded as 93% and the “BTK degradation (%) 100 nM” value is listed as 98.5%.
In the same order, the values of `Cc1cc(-c2ccnc(Nc3ccc(N4CCN(CC5CCN(c6ccc7c(c6)C(=O)N(C6CCC(=O)NC6=O)C7=O)CC5)CC4)nc3)n2)ccc1CNC(=O)N1CC(OC(C)C)C1` (stereo not drawn) [Example 17, N-(4-(2-((6-(4-((1-(2-(2,6-dioxopiperidin-3-yl)-1,3-dioxoisoindolin-5-yl)piperidin-4-yl)methyl)piperazin-1-yl)pyridin-3-yl)amino)pyrimidin-4-yl)-2-methylbenzyl)-3-isopropoxyazetidine-1-carboxamide] are 37%, 91% and 98%.
Taken in the same sequence, the figures for `Cc1cc(-c2ccnc(Nc3ccc(N4CCN(CC5CN(c6ccc7c(c6)C(=O)N(C6CCC(=O)NC6=O)C7=O)C5)CC4)nc3)n2)ccc1CNC(=O)N1CC(OC(C)C)C1` (stereo not drawn) [Example 18, N-(4-(2-((6-(4-((1-(2-(2,6-dioxopiperidin-3-yl)-1,3-dioxoisoindolin-5-yl)azetidin-3-yl)methyl)piperazin-1-yl)pyridin-3-yl)amino)pyrimidin-4-yl)-2-methylbenzyl)-3-isopropoxyazetidine-1-carboxamide] were 46%, 92% and 98.5%.
With `Cc1cc(-c2ccnc(Nc3ccc(C4CCN(CC5CCN(c6ccc7c(c6)C(=O)N(C6CCC(=O)NC6=O)C7=O)CC5)CC4)nc3)n2)ccc1CNC(=O)N1CC(OC(C)C)C1` (stereo not drawn) [Example 19, N-(4-(2-((6-(1-((1-(2-(2,6-dioxopiperidin-3-yl)-1,3-dioxoisoindolin-5-yl)piperidin-4-yl)methyl)piperidin-4-yl)pyridin-3-yl)amino)pyrimidin-4-yl)-2-methylbenzyl)-3-isopropoxyazetidine-1-carboxamide], the “BTK degradation (%) 1 nM” value stood at 48%, the “BTK degradation (%) 10 nM” value is listed as 93% and the “BTK degradation (%) 100 nM” value came to 99%.
Taken in the same sequence, the figures for `Cc1cc(-c2ccnc(Nc3ccc(C4CCN(CC5CN(c6ccc7c(c6)C(=O)N(C6CCC(=O)NC6=O)C7=O)C5)CC4)nc3)n2)ccc1CNC(=O)N1CC(OC(C)C)C1` (stereo not drawn) [Example 20, N-(4-(2-((6-(1-((1-(2-(2,6-dioxopiperidin-3-yl)-1,3-dioxoisoindolin-5-yl)azetidin-3-yl)methyl)piperidin-4-yl)pyridin-3-yl)amino)pyrimidin-4-yl)-2-methylbenzyl)-3-isopropoxyazetidine-1-carboxamide] were 49%, 92% and 98.5%.
In the same order, the values of `Cc1cc(-c2ccnc(Nc3cnn(C4CCN(CC5CCN(c6ccc7c(c6)C(=O)N(C6CCC(=O)NC6=O)C7=O)CC5)CC4)c3)n2)ccc1CNC(=O)N1CC(OC(C)C)C1` (stereo not drawn) [Example 21, N-(4-(2-((1-(1-((1-(2-(2,6-dioxopiperidin-3-yl)-1,3-dioxoisoindolin-5-yl)piperidin-4-yl)methyl)piperidin-4-yl)-1H-pyrazol-4-yl)amino)pyrimidin-4-yl)-2-methylbenzyl)-3-isopropoxyazetidine-1-carboxamide] are 70%, 96.5% and 99%.
In the same order, the values of `Cc1cc(-c2ccnc(Nc3cnn(C4CCN(CC5CN(c6ccc7c(c6)C(=O)N(C6CCC(=O)NC6=O)C7=O)C5)CC4)c3)n2)ccc1CNC(=O)N1CC(OC(C)C)C1` (stereo not drawn) [Example 22, N-(4-(2-((1-(1-((1-(2-(2,6-dioxopiperidin-3-yl)-1,3-dioxoisoindolin-5-yl)azetidin-3-yl)methyl)piperidin-4-yl)-1H-pyrazol-4-yl)amino)pyrimidin-4-yl)-2-methylbenzyl)-3-isopropoxyazetidine-1-carboxamide] are 75%, 97% and 99%.

The values are drawn from patent US20250041429A1, “COMPOUND HAVING BTK PROTEIN DEGRADATION ACTIVITY, AND MEDICAL USES THEREOF” (UBIX THERAPEUTICS, INC., priority 2021, published 2025).
